One experiment has as its target T1, LSD2 (residues 51-822) (Homo sapiens, UniProt Q8NB78).
T1 construct: Human LSD2 (residues 51-822) was subcloned into a pFastBacl derivative; His6 (cleaved yes); made in house; host or cells: Sf9 insect cells (baculovirus)
T1 sequence (Q8NB78 51-822): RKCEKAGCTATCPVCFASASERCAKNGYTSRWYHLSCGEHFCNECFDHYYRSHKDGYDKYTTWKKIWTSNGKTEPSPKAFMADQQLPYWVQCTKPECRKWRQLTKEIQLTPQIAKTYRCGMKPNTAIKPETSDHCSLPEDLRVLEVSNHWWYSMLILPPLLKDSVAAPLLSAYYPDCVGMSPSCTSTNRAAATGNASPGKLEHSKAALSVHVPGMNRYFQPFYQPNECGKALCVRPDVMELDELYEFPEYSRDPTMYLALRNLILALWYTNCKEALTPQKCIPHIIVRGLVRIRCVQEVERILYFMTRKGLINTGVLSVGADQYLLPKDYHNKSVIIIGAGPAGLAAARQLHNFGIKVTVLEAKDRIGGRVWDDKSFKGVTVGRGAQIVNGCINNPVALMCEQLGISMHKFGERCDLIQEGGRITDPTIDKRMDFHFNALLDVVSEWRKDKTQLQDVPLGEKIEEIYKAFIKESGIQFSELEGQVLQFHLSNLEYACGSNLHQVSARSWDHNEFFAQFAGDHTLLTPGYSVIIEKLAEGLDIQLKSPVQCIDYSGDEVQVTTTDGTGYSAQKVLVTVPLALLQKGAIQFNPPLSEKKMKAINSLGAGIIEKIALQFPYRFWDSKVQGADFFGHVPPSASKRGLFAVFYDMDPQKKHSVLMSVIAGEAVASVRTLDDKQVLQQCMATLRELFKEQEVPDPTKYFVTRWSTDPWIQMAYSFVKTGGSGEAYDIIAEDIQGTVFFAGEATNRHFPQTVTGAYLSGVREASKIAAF
Put plainly: ITC binding of wild-type and mutant NPAC peptides (residues 214-225) with LSD2. To be noted: 15 °C; 3 mM NPAC peptide injected into 0.2 mM LSD2. The procedure: (§1) All proteins and peptides were prepared in 10 mM HEPES, pH 8.0, and 0.1 M NaCl. The data were fitted by software Origin 7.0.

The target of experiment [1] is T2, LSD2 and NPAC.214-225.F217A (Homo sapiens, UniProt Q8NB78).
T2 construct: containing 0.029 mM LSD2 (residues 51-822) or LSD2-NPAC complex; His6 (cleaved yes); made in house; host or cells: LSD2: Sf9 insect cells; NPAC peptide: chemical synthesis
Put plainly: ITC binding of H3K4M peptide with LSD2 in complex with F217A NPAC peptide. To be noted: FIG. 6H. The procedure:
as §1

The target in the next experiment is T3, His-LSD2 (Homo sapiens, UniProt Q8NB78).
T3 construct: typically 0.5 μg full-length His-LSD2; made in house; host or cells: Sf9 insect cells
T3 sequence (Q8NB78 1-822): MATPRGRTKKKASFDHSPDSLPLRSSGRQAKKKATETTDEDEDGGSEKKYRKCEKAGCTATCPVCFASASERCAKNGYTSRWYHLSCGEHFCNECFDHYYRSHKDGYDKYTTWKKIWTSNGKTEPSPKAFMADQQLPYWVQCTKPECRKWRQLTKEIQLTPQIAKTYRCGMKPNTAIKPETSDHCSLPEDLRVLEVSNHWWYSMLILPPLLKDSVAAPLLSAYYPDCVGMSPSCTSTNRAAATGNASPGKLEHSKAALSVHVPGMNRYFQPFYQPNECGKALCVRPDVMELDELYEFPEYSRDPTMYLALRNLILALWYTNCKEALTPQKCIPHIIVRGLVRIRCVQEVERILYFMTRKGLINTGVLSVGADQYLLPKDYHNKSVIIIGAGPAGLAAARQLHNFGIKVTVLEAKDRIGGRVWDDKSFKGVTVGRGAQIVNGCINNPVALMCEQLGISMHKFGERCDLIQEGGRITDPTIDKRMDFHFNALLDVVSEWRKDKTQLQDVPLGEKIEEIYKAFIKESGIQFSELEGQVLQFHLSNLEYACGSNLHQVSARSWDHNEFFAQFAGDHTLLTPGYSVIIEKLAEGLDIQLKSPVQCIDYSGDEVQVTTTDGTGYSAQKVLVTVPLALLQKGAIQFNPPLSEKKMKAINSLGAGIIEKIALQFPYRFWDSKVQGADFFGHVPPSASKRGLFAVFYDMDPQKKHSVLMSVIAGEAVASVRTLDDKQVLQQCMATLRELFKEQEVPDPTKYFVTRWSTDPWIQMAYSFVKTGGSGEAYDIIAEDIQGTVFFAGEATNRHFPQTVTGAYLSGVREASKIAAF
Kind of experiment: Nucleosome demethylation assay (NPAC cofactor activity for LSD2, immunoblot). The experiment is classed as biochemical. The note with it: threshold dosage of His-LSD2; nucleosomes purified from HeLa. As to the method:
For nucleosome demethylation assays, typically 0.5 μg full-length His-LSD2, 1 μg NPAC protein or peptides, and 2 μg nucleosomes purified from HeLa were used, and demethylation efficiency was analyzed by SDS-PAGE electrophoresis and immunoblot using methylation specific anti-histone H3 antibodies as previously described (Shi et al. 2004).
On the technique in general: Immunoblotting shows a protein as a band on a membrane.

The next experiment deals with T4, LSD2 (Homo sapiens, UniProt Q8NB78).
T4 construct: 0.15 μM or 1.2 μM purified LSD2 (residues 51-822); His6 (cleaved yes); made in house; host or cells: Sf9 insect cells (baculovirus)
T4 sequence (Q8NB78 51-822): T1 sequence (Q8NB78 51-822)
Kind of experiment: H3K4me2 peptide demethylation assay (MALDI-TOF). The experiment is classed as biochemical. The note with it: H3K4me2 peptide residues 1-21. The procedure:
FIGS. 12A-12F depict analysis of LSD2 demethylation activity and mutational analysis. […] Demethylation products were analyzed by MALDI-TOF mass spectrometry. 0.15 μM LSD2 can efficiently demethylate the longer H3K4me2 peptide (1-21), but has no detectable activity on the shorter histone peptide (1-15), demethylation of which requires high concentration (1.2 μM) of LSD2. […] It indicates the importance of histone residue 16-21 to LSD2 enzymatic activity and NPAC cofactor activity, supporting our model that NPAC assists enzyme-substrate interactions by creating a new binding site for H3 L20 in the LSD2-NPAC complex. FIG. 12C depicts LSD2 demethylation and NPAC cofactor activity on longer H3K4me2 peptide (1-44). 2 μg H3K4me2 peptide (1-44) were incubated with 0.8 μg GST-LSD2 (1-822) and 2 μg wild-type or F217A full-length GST-NPAC proteins in 100 μl demethylation buffer (50 mM Tris-HCl pH 8.1, 1 mM NAD^+, 0.1 Unit formaldehyde dehydrogenase) at 30° C. for 2 hours. LSD2 alone can efficiently demethylate di-methyl H3K4 of the long peptides, converting large majority of the substrate to H3K4me1. Wild-type NPAC protein can efficiently stimulate LSD2 demethylation, producing unmethylated H3K4. F217A mutation impairs NPAC cofactor activity as expected, showing little stimulatory effect if any. To compare demethylation efficiency, 1.2 μg bio-H3K4me2 peptide (H3 residue 1-21, equal molar ratio to 2 ug H3K4me2 1-44 peptide in above assays) was demethylated by LSD2 under identical conditions (bottom panel). […] The cofactor activity of wild-type NPAC was readily detected under the same conditions. […] Importantly, the demethylation of nucleosomal H3K4me2 was much more efficient in the presence of wild-type NPAC under same conditions (comparing lane 3 verse 4, and 8 verse 9). It is noted that no obvious cofactor effect of F217A peptide or linker regions was detected in nucleosome and peptide demethylation assays (FIG. 6E and data not shown). FIG. 12F depicts Coomassie staining of NPAC proteins used in histone demethylase assays. FIG. 12F discloses “His6” as SEQ ID NO: 75.
Histone peptides are purchased from Millipore, or custom synthesized. The purity of all peptides are >95% as determined by HPLC and mass spectrometry. In vitro histone demethylase activity assays were performed as described (Shi et al., 2004). Briefly, purified LSD2 and NPAC derived peptides or proteins were incubated with 50 μM H3K4me2 peptides (residues 1-21) in 50 mM Tris-HCl, pH 8.5, 50 mM KCl, 5 mM MgCl2, 5% glycerol at 37° C. for 30 min. The products were desalted through a C18 Ziptip (Millipore) and analyzed on a MALDI-TOF micro MX mass spectrometer (ABI 4700, Applied Biosystems). The laser intensity was kept constant for all of the samples. All MS data were processed using Data Explorer 4.5 (Applied Biosystems). […]

The next experiment has as its target T5, NPAC214-225.WT (Homo sapiens, UniProt Q49A26).
T5 construct: wild-type or mutant NPAC peptides (residues 214-225); made in house; host or cells: chemical synthesis
Kind of experiment: ITC binding between H3K4M peptide and wild-type NPAC peptide alone. The note with it: FIG. 6H.

Ends that are not written are not given here.

A word on the Kd: it is the free concentration of one partner at which half of the binding sites on the other are occupied at equilibrium, for simple one-to-one binding. High values mean lower affinity, low ones higher affinity. Regarding DPHAHHFLLSQT [NPAC.214-225.M6], on LSD2 (residues 51-822), the Binding ratio is 1.10 ± 0.01, the Kd came out at 930 ± 70 nM, the “Δ H” value was -8.182 ± 0.097 kcal/mol and the “Δ S” value is given as −0.783 cal/mol/deg. Also, in experiment [1], the “Ability of NPAC peptide to stabilize the LSD2-H3K4M peptide interaction” value was “significantly diminishes the ability of NPAC to stabilize the interaction between LSD2 and the H3K4M peptide”. In addition, the “Cofactor activity: stimulation of LSD2 demethylation of nucleosomal H3K4me2” value on His-LSD2 is “abolishes cofactor activity”. Also, the “Cofactor activity: stimulation of LSD2 demethylation of H3K4me2 peptide” value on LSD2 was “but not the F217A mutant, can stimulate LSD2-mediated demethylation of H3K4me2 peptides”.

With DPHFHHFLLSQT [NPAC.214-225.WT], on LSD2 (residues 51-822), the Binding ratio was found to be 1.06 ± 0.01; the affinity, expressed as Kd, was 920 ± 80 nM; the “Δ H” value was -8.482 ± 0.121 kcal/mol; the “Δ S” value is on record as −1.82 cal/mol/deg. Besides, at NPAC214-225.WT, the “Affinity of NPAC peptide to H3K4M peptide” value is “no appreciable affinity to H3K4M peptide”. The “Cofactor activity: stimulation of LSD2 demethylation of nucleosomal H3K4me2” value at His-LSD2 is “sufficient to enhance LSD2 activity in nucleosome demethylation assays”. Also, the “Cofactor activity: stimulation of LSD2 demethylation of H3K4me2 peptide” value on LSD2 is “can stimulate LSD2-mediated demethylation of H3K4me2 peptides”.

The values are drawn from patent US9745384B2, “Peptides useful for modulating histone demethylase function” (The Brigham and Women's Hospital, Inc., priority 2012, dated 2017).
